Measurements as given in patent EP0330444A2, “Novel thiorhodamines and a novel method of preparation” (EASTMAN KODAK COMPANY (a New Jersey corporation), priority 1988, dated 1989).

How the values were obtained:
[1] = tested on: A549 Human Lung Carcinoma; assay: In vitro IC50, adhering monolayer culture, neutral red staining, inhibition of cell growth; type: cell-based; conditions: 3 hours drug exposure under red light, then about 7 days growth (four cell-doubling times), neutral red absorbence at 540 nm, read-out: IC₅₀ A549 Human Lung Carcinoma
Text: (§1) The following is the procedure carried out in ascertaining the IC₅₀ concentrations of the thiorhodamines of this invention. (IC₅₀ is the in vitro molar concentration that inhibits 50% of tumor growth. The smaller the concentration, the higher the toxicity.):
(§2) For the IC₅₀ values for the human colon carcinoma and the human lung carcinoma lines, an adhering monolayer culture was used. Two days prior to plating, a number of cells obtained from the American Type Tissue Culture Collection was selected to grow as a stock, the number being that which would ensure the cells had not reached their plateau at the time of the in vitro test. On day 1 of the assay, asynchronous exponentially growing cells from this stock were suspended in a conventional complete medium comprising RPMI 1640 medium supplemented with 5% (v/v) fetal calf serum and 5% (v/v) NU serum obtained from Collaborative Research, and 20mM HEPES buffer, i.e., 4-(2-hydroxyethyl)-1-piperazineethanesulfonic acid. This was plated into a conventional 96-well tissue culture plate using a Cetus/Perkin Elmer automated pipetting device equipped with a dual supply manifold. The cells were then incubated for 48 hours at 37°C in a humidified atmosphere containing 5% CO₂. The cells were then incubated under red light for 3 hours in the presence of varying amounts of the compound of interest at 37°C in a humidified incubator containing 5% CO₂. Compounds were tested over a 6-log range of concentrations. After 3 hours the drug treated cells were then rinsed one time with complete medium as set forth above, and incubated in the complete medium the length of time appropriate to achieve four cell-doubling times (roughly 7 days for these cell lines). The medium was removed and the cells stained for 1-2 hours at 37°C with 0.1% (w/v) neutral red dye obtained from Eastman Kodak Co., dissolved in phosphate buffered saline (PBS) (without calcium or magnesium cations) at a pH of 6.85. The cells were rinsed twice with the same PBS and dried. Excess neutral red dye was eluted from each well with 50% (v/v) ethanol in 1% (v/v) glacial acetic acid. The absorbence of each well was quantitated using a Perkin-Elmer absorbence densitometer set at 540 nm. The % of inhibition of cell growth for a given concentration of compound was calculated using the equation: [formula] where At = absorbence of the cells treated with the candidate drug, Au = absorbence of the control treated with solvent only, and Ab = absorbence of the media and well only (background). […] The plotted data was then fitted to the curve for the function: F(x) = 100 - [100(X/A)^B/(1+(X/A)^B)] where x = the concentration of the test compound, A = the IC₅₀ value (50% inhibition on the plot) and B=the exponent of the fitted function. […]

[2] = tested on: CX-1 Human Colon Carcinoma; assay: as above; type: cell-based; conditions: 3 hours drug exposure under red light, then about 7 days growth (four cell-doubling times), neutral red absorbence at 540 nm, read-out: IC₅₀ CX-1 Human Colon Carcinoma
Text: as §1, §2

| SMILES | IC50 [1] | IC50 [2] |
| --- | --- | --- |
| COC(=O)c1ccccc1-c1c2ccc(=N)cc-2oc2cc(N)ccc12 [Rhodamine 123] | > 12500 nM | > 12500 nM |
| COC(=O)c1ccccc1-c1c2ccc(N(C)C)cc2[s+]c2cc(N(C)C)ccc12 [Prep. 4, 3,6-bis(dimethylamino)-9-(2-methoxycarbonylphenyl)thioxanthylium chloride] | 810 nM | 810 nM |
